Legend:
[1] = target: Cyclin-dependent kinase 5/CDK5 activator 1 (Homo sapiens, UniProt Q00535); assay: Inhibition of human recombinant CDK5/p25 using [gamma-33P]ATP after 30 mins by scintillation counting; format: protein-complex assay
[2] = target: Glycogen synthase kinase-3 (Sus scrofa, UniProt B2LUN4+I6LNT8); assay: Inhibition of porcine brain GSK3alpha/beta using GS-1 as substrate
[3] = target: Dual specificity tyrosine-phosphorylation-regulated kinase 1A (Rattus norvegicus, UniProt Q63470); assay: Inhibition of GST-tagged rat recombinant DYRK1A expressed in Escherichia coli using myelin basic protein as substrate and [gamma-33P]ATP after 30 mins by scintillation counting
[4] = target: T1, DNA topoisomerase 1 (Homo sapiens) (UniProt P11387); assay: Human topoisomerase 1-mediated nicking of supercoiled plasmid pUC19 DNA at 100 uM by agarose gel electrophoresis
T1 sequence (whole entry): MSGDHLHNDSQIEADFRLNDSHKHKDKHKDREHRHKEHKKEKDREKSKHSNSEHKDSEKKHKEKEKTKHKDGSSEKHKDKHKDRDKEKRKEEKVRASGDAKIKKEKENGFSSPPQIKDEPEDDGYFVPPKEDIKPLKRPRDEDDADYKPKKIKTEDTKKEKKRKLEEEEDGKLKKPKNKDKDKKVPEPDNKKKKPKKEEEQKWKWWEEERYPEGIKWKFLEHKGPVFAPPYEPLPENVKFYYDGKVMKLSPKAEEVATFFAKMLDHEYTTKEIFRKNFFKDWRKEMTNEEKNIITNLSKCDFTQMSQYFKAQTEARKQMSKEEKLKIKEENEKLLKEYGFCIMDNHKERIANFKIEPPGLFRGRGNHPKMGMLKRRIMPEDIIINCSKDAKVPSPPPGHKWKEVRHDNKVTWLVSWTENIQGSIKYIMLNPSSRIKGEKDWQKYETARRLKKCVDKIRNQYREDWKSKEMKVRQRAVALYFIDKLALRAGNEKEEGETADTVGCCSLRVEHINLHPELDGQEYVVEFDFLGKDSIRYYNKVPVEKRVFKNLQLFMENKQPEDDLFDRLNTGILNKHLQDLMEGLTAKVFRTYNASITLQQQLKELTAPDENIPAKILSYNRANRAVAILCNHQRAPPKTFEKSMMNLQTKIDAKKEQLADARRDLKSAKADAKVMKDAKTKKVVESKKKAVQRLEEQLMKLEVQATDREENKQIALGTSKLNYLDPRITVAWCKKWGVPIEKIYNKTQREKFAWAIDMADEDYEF

CCRF-CEM = assay: Cytotoxicity against human CEM cells; format: functional, cell-based
[5] = target: T1, DNA topoisomerase 1 (Homo sapiens); assay: Human topoisomerase 1-mediated nicking of supercoiled plasmid pUC19 DNA at 20 uM by agarose gel electrophoresis

Cyclin-dependent kinase 5/CDK5 activator 1, sequence (Q00535 whole entry): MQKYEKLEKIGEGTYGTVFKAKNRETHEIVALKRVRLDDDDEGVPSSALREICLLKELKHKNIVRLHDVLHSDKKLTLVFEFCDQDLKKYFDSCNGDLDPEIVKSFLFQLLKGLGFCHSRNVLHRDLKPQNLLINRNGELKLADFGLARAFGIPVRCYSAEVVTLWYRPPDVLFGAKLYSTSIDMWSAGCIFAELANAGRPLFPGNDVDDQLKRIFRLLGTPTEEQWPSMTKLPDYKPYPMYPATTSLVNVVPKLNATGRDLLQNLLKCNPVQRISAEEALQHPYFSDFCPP
Cyclin-dependent kinase 5/CDK5 activator 1, sequence (Q15078 whole entry, further chain): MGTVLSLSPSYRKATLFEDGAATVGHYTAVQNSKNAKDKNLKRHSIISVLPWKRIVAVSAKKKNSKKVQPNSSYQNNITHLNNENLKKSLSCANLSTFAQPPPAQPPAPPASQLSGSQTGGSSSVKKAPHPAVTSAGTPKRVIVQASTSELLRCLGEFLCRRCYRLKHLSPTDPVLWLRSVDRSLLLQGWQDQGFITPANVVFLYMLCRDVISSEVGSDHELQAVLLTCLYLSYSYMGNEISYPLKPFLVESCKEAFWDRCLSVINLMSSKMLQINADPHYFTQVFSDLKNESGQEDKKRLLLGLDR

SMILES	IC50 [1] [µM]	IC50 [2]	IC50 [3] [µM]	% nicked DNA [4] [%]	IC50 (CCRF-CEM) [µM]	% nicked DNA [5] [%]
O=c1oc2cc(O)ccc2c2c1[nH]c1ccccc12	4.7	0.44 µM	0.5	–	–	–
COc1cccc2oc(=O)c3[nH]c4ccccc4c3c12	> 10	> 10 µM	> 10	–	–	–
O=c1oc2ccc(O)cc2c2c1[nH]c1ccc(O)cc12	0.72	0.31 µM	0.067	–	–	–
O=c1oc2ccc(O)cc2c2c1[nH]c1cc3c(cc12)OCO3	16	> 10 µM	1.8	–	–	–
O=c1oc2ccc(O)cc2c2c1[nH]c1ccc(C(F)(F)F)cc12	≥ 10	>= 10 uM	≥ 10	–	–	–
O=c1oc2cc(O)ccc2c2c1[nH]c1cc(O)ccc12	10	10 µM	3.2	–	–	–
O=c1oc2cc(O)ccc2c2c1[nH]c1ccc(O)cc12	4.2	0.42 µM	0.3	21	38.5	16
Cc1cccc2[nH]c3c(=O)oc4ccc(O)cc4c3c12	> 10	5.9 µM	0.66	–	–	–
Cc1ccc2c(c1)[nH]c1c(=O)oc3ccc(O)cc3c12	> 10	> 10 µM	3.3	–	–	–
CC[C@@]1(O)C(=O)OCc2c1cc1n(c2=O)Cc2cc3ccccc3nc2-1 [CAMPTOTHECIN]	–	–	–	–	0.005	–
COc1cc(-c2c3c4cc(OC)c(O)cc4oc(=O)c3n3ccc4cc(O)c(OC)cc4c23)ccc1O [LAMELLARIN D]	–	–	–	21	15	22
O=c1oc2ccc(O)cc2c2c1[nH]c1ccccc12	2.7	0.38 µM	0.074	–	–	–
O=c1oc2cc(O)c(O)cc2c2c1[nH]c1ccc(O)cc12	> 10	1.3 µM	1.5	–	–	–
COc1ccc(-c2ccc3c(c2)[nH]c2c(=O)oc4ccc(O)cc4c23)cc1	> 10	> 10 µM	> 10	–	–	–
COc1cccc2[nH]c3c(=O)oc4ccc(O)cc4c3c12	≥ 10	3.3 µM	0.35	–	–	–
CCCOc1cccc2[nH]c3c(=O)oc4ccc(O)cc4c3c12	> 10	8.1 µM	1.7	–	–	–
O=c1oc2ccccc2c2c1[nH]c1ccccc12	> 10	> 10 µM	> 10	–	–	–
O=c1oc2ccc(O)cc2c2c1[nH]c1cc(O)ccc12	> 10	> 10 µM	4.3	–	–	–
O=c1oc2ccc(O)cc2c2c1[nH]c1cccc(-c3ccc(O)cc3)c12	≥ 10	> 10 µM	≥ 10	–	–	–
O=c1oc2ccc(O)cc2c2c1[nH]c1ccc(F)cc12	8.4	2.5 µM	0.21	–	–	–
O=c1oc2ccc(O)cc2c2c1[nH]c1cccc(C(F)(F)F)c12	> 10	>= 10 uM	2.1	–	–	–
O=c1oc2ccccc2c2c1[nH]c1cccc(-c3ccc(O)cc3)c12	≥ 10	> 10 µM	≥ 10	–	–	–
